pIC50: −log10 of the molar value.
Columns and labels:
[1] = target: von Hippel-Lindau disease tumor suppressor/SWI/SNF-related matrix-associated actin-dependent regulator of chromatin subfamily A member 2 (Homo sapiens, UniProt P51531+P40337); assay: PROTAC activity at SMARCA2/VHL1 in human HeLa cells assessed as protein degradation by Nano-Glo HiBiT lytic detection assay; assay type: cell-based
[2] = target: von Hippel-Lindau disease tumor suppressor/SWI/SNF-related matrix-associated actin-dependent regulator of chromatin subfamily A member 4 (Homo sapiens, UniProt P51532+P40337); assay: PROTAC activity at SMARCA4/VHL1 in human HeLa cells assessed as protein degradation by Nano-Glo HiBiT lytic detection assay; assay type: cell-based
[3] = PROTAC activity at SMARCA2/E3 ubiquitin ligase (unknown origin) assessed as protein degradation; design: species or system Homo sapiens
[4] = PROTAC activity at SMARCA4/E3 ubiquitin ligase (unknown origin) assessed as protein degradation; design: species or system Homo sapiens
[5] = organism: Homo sapiens; assay: PROTAC activity at SMARCA2/E3 ubiquitin ligase (unknown origin) assessed as maximal protein degradation
[6] = organism: Homo sapiens; assay: PROTAC activity at SMARCA4/E3 ubiquitin ligase (unknown origin) assessed as maximal protein degradation
[7] = organism: Homo sapiens; assay: Selectivity ratio, ratio of DC50 for PROTAC activity at SMARCA2/E3 ubiquitin ligase (unknown origin) to DC50 for PROTAC activity at SMARCA4/E3 ubiquitin ligase (unknown origin
[8] = target: SWI/SNF-related matrix-associated actin-dependent regulator of chromatin subfamily A member 2 (Homo sapiens, UniProt P51531); assay: Inhibition of SMARCA2 (unknown origin)
[9] = target: SWI/SNF-related matrix-associated actin-dependent regulator of chromatin subfamily A member 4 (Homo sapiens, UniProt P51532); assay: Inhibition of SMARCA4 (unknown origin)
[10] = Plasma concentration in SCID mouse xenografted with human NCI-H838 cells at 10 mg/kg, iv measured after 24 hrs by LC-MS/MS analysis; assay type: ADME, organism-based
[11] = Plasma concentration in SCID mouse xenografted with human NCI-H838 cells at 10 mg/kg, iv measured after 96 hrs by LC-MS/MS analysis; assay type: ADME, organism-based
[12] = Drug uptake in tumor of human NCI-H838 cells xenografted SCID mouse model at 10 mg/kg, iv measured after 24 hrs by LC-MS/MS analysis; assay type: ADME, organism-based, Neoplasm; conditions: read-out: Drug uptake
[13] = Drug uptake in tumor of human NCI-H838 cells xenografted SCID mouse model at 10 mg/kg, iv measured after 96 hrs by LC-MS/MS analysis; assay type: ADME, organism-based, Neoplasm; conditions: read-out: Drug uptake

Sequence of von Hippel-Lindau disease tumor suppressor/SWI/SNF-related matrix-associated actin-dependent regulator of chromatin subfamily A member 2 (P51531 whole entry): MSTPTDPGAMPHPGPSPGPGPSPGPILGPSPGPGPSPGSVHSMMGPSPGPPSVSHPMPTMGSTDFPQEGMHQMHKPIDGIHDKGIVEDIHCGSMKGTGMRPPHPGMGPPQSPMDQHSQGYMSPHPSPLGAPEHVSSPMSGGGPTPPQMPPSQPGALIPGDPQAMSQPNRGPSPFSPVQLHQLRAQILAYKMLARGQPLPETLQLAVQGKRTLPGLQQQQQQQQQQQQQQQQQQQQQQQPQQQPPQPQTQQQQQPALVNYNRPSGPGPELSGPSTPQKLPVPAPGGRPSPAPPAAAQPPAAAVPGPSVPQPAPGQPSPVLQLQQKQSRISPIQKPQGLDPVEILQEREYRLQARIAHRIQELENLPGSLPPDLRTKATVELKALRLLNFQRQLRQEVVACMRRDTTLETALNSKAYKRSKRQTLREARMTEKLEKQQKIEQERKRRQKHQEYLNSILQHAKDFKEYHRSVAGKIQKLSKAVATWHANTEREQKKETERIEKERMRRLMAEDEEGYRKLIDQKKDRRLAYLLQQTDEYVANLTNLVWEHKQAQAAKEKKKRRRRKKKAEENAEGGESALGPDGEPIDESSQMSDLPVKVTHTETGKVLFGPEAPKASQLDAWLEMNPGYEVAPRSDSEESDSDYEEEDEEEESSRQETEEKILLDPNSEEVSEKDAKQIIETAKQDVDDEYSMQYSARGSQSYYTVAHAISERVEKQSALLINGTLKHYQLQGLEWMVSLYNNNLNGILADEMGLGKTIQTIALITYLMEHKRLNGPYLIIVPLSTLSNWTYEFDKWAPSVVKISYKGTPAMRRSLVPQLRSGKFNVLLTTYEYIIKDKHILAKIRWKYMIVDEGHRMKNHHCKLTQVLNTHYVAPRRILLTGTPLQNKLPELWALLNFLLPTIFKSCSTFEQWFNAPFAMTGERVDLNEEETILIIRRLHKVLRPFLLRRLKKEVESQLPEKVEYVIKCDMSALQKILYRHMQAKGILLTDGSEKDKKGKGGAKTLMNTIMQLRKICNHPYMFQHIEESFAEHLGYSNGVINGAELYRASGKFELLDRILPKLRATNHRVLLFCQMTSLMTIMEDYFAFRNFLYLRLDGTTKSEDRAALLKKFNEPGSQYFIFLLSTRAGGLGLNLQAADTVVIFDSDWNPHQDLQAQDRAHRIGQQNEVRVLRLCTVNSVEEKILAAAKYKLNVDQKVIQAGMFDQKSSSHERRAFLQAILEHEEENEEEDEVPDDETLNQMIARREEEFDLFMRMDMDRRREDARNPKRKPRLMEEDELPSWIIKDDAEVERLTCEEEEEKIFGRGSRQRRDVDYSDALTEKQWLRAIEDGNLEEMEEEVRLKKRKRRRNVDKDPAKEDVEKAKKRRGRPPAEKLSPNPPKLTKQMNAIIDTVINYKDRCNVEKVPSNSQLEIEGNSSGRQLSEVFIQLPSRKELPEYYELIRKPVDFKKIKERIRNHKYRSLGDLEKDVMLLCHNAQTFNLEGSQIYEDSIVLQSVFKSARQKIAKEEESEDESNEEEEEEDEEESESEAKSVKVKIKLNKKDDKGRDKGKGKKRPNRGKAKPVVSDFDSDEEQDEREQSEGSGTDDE
Sequence of von Hippel-Lindau disease tumor suppressor/SWI/SNF-related matrix-associated actin-dependent regulator of chromatin subfamily A member 2 (P40337 whole entry): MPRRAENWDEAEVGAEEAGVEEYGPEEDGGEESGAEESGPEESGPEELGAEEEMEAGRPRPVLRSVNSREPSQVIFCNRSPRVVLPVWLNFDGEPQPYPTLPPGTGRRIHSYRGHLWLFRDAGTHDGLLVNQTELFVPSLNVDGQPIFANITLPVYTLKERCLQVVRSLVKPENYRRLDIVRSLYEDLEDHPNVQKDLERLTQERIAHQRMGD
Sequence of von Hippel-Lindau disease tumor suppressor/SWI/SNF-related matrix-associated actin-dependent regulator of chromatin subfamily A member 4 (P51532 whole entry): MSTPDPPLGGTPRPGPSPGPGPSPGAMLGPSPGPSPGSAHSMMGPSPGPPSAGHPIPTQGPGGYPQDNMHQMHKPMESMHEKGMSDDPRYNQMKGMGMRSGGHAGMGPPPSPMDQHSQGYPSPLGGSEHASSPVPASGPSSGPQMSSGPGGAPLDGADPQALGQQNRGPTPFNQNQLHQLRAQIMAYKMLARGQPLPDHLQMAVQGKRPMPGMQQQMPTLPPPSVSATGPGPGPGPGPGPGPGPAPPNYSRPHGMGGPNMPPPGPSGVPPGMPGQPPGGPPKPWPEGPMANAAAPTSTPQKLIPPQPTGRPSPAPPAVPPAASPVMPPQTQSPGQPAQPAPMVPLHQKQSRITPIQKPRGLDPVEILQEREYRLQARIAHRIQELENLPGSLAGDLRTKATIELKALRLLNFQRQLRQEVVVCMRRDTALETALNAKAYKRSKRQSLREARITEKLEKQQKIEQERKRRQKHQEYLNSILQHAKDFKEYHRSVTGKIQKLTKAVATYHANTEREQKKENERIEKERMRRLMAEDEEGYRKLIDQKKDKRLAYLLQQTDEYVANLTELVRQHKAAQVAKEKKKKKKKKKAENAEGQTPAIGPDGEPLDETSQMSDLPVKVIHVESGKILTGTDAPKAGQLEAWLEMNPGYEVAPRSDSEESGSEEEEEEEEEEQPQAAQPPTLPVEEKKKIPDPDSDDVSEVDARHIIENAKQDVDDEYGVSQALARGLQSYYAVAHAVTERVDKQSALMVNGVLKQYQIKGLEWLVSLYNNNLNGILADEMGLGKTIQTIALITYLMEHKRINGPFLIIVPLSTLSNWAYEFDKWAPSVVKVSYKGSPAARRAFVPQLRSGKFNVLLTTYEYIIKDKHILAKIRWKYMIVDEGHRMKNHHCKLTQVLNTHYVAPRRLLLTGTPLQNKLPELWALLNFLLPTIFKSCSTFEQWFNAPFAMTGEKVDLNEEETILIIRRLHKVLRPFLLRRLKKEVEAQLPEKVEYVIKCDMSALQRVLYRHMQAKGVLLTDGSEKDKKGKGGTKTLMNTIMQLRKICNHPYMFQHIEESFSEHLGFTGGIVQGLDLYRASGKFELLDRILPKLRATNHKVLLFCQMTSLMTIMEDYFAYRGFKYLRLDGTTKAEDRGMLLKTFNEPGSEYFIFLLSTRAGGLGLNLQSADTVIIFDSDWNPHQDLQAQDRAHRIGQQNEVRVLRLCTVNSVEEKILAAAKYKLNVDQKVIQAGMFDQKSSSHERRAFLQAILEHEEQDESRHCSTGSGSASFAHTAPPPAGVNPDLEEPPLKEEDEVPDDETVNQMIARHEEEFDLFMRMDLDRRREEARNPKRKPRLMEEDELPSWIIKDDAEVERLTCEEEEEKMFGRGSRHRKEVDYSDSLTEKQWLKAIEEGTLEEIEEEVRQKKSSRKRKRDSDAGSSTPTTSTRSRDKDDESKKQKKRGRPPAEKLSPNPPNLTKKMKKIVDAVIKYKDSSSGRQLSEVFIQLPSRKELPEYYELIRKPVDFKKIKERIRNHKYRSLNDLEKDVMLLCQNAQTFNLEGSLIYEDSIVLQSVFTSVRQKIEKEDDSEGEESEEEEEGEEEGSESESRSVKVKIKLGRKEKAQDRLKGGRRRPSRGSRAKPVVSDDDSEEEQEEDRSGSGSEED
Sequence of von Hippel-Lindau disease tumor suppressor/SWI/SNF-related matrix-associated actin-dependent regulator of chromatin subfamily A member 4 (P40337 whole entry): as the sequence (P40337 whole entry) above
Sequence of SWI/SNF-related matrix-associated actin-dependent regulator of chromatin subfamily A member 2 (P51531 whole entry): as the sequence (P51531 whole entry) above
Sequence of SWI/SNF-related matrix-associated actin-dependent regulator of chromatin subfamily A member 4 (P51532 whole entry): as the sequence (P51532 whole entry) above

| SMILES | DC50 [1] | DC50 [2] | also measured |
| --- | --- | --- | --- |
| Cc1ncsc1-c1ccc([C@H](C)NC(=O)[C@@H]2C[C@@H](O)CN2C(=O)[C@@H](n2cc([C@H]3CC[C@H](CN4CCC(c5ccc6c(c5)-n5c(nc(=O)c7c(Br)cccc75)C65CCCCC5)CC4)CC3)nn2)C(C)(C)C)cc1 | 0.24 nM | 22 nM |  |
| Cc1ncsc1-c1ccc([C@H](CN2CCC(C(=O)O)CC2)NC(=O)[C@@H]2C[C@@H](O)CN2C(=O)[C@@H](n2cc([C@H]3CC[C@H](CN4CCC(c5ccc6c(c5)-n5c(nc(=O)c7c(Cl)cccc75)C65CCCCC5)CC4)CC3)nn2)C(C)(C)C)cc1 | 111 nM | > 1000 nM |  |
| COCCOCCOCCOCCOC[C@H](NC(=O)[C@@H]1C[C@@H](O)CN1C(=O)[C@@H](n1cc([C@H]2CC[C@H](CN3CCC(c4ccc5c(c4)-n4c(nc(=O)c6c(Cl)cccc64)C54CCCCC4)CC3)CC2)nn1)C(C)(C)C)c1ccc(-c2scnc2C)cc1 | 3 nM | > 1000 nM |  |
| Cc1ncsc1-c1ccc(CNC(=O)[C@@H]2C[C@@H](O)CN2C(=O)[C@@H](NC(=O)C2(F)CC2)C(C)(C)C)c(OCCOc2ccc(CN3CCN(c4cc(-c5ccccc5O)nnc4N)CC3)cc2)c1 |  |  | DC50 [3]: 6 nM; DC50 [4]: 11 nM; Emax [5]: > 95%; Emax [6]: > 95%; Ratio [7]: 2 |
| Cc1ncsc1-c1ccc([C@H](CC[C@H](C)CCN2CCC(c3ccc4c(c3)n(C3CCCC3)c3nc(=O)c5c(Br)cccc5n43)CC2)NC(=O)[C@@H]2C[C@@H](O)CN2C(=O)[C@@H](NC(=O)C2(F)CC2)C(C)(C)C)cc1 |  |  | DC50 [3]: 1 nM; DC50 [4]: 32 nM; Emax [5]: 81%; Emax [6]: 67%; Ratio [7]: 32 |
| Cc1nc(C)c(-c2ccc([C@H](CN3CCOCC3)NC(=O)[C@@H]3C[C@@H](O)CN3C(=O)[C@@H](n3cc([C@H]4CC[C@H](CN5CCC(c6ccc7c(c6)-n6c(nc(=O)c8c(Cl)cccc86)C76CCCCC6)CC5)CC4)nn3)C(C)(C)C)cc2)o1 | 1 nM | 575 nM |  |
| Cc1ncsc1-c1ccc([C@H](C)NC(=O)[C@@H]2C[C@@H](O)CN2C(=O)[C@@H](NC(=O)[C@H]2CC[C@H](CN3CCC(c4ccc5c(c4)-n4c(nc(=O)c6c(Cl)cccc64)C54CCCCC4)CC3)CC2)C(C)(C)C)cc1 | 8 nM |  |  |
| Cc1ncoc1-c1ccc([C@H](CN2CCOCC2)NC(=O)[C@@H]2C[C@@H](O)CN2C(=O)[C@@H](n2cc([C@H]3CC[C@H](CN4CCC(c5ccc6c(c5)-n5c(nc(=O)c7c(Cl)cccc75)C65CCCCC5)CC4)CC3)nn2)C(C)(C)C)cc1 | 1 nM | > 1000 nM |  |
| Cc1ncsc1-c1ccc([C@H](C)NC(=O)[C@@H]2C[C@@H](O)CN2C(=O)[C@@H](NC(=O)[C@H]2CC[C@H](CN3CCC(c4ccc5c(c4)C4(CCCCC4)c4nc(=O)c6c(Cl)cccc6n4-5)CC3)CC2)C(C)(C)C)cc1 | 6.3 nM |  |  |
| Cc1ncsc1-c1ccc([C@H](C)NC(=O)[C@@H]2C[C@@H](O)CN2C(=O)[C@@H](n2cc([C@H]3CC[C@H](CN4CCC(c5ccc6c(c5)C5(CCCCC5)c5nc(=O)c7c(Br)cccc7n5-6)CC4)CC3)nn2)C(C)(C)C)cc1 | 0.15 nM | 2 nM |  |
| Cc1ncsc1-c1ccc([C@H](CN2CCC(F)(F)CC2)NC(=O)[C@@H]2C[C@@H](O)CN2C(=O)[C@@H](n2cc([C@H]3CC[C@H](CN4CCC(c5ccc6c(c5)-n5c(nc(=O)c7c(Cl)cccc75)C65CCCCC5)CC4)CC3)nn2)C(C)(C)C)cc1 | 2 nM | > 1000 nM |  |
| O=c1nc2n(c3cccc(Cl)c13)-c1cc(C3CCNCC3)ccc1C21CCCCC1 |  |  | pIC50 [8]: 7.18; pIC50 [9]: 7.08 |
| Cc1ncsc1-c1ccc([C@H](C)NC(=O)[C@@H]2C[C@@H](O)CN2C(=O)[C@@H](n2cc([C@H]3CC[C@H](CN4CCC(c5ccc6c(c5)C5(CCCCC5)c5nc(=O)c7c(Cl)cccc7n5-6)CC4)CC3)nn2)C(C)(C)C)cc1 | 0.29 nM | 3 nM |  |
| CC(C)(C)[C@@H](C(=O)N1C[C@H](O)C[C@H]1C(=O)N[C@@H](CN1CCOCC1)c1ccc(-c2ccccc2)cc1)n1cc([C@H]2CC[C@H](CN3CCC(c4ccc5c(c4)-n4c(nc(=O)c6c(Cl)cccc64)C54CCCCC4)CC3)CC2)nn1 | 5 nM | 430 nM |  |
| COCCOCCOCCOC[C@H](NC(=O)[C@@H]1C[C@@H](O)CN1C(=O)[C@@H](n1cc([C@H]2CC[C@H](CN3CCC(c4ccc5c(c4)-n4c(nc(=O)c6c(Cl)cccc64)C54CCCCC4)CC3)CC2)nn1)C(C)(C)C)c1ccc(-c2scnc2C)cc1 | 2 nM | > 1000 nM |  |
| Cc1nc(C)c(-c2ccc([C@H](CN3CCOCC3)NC(=O)[C@@H]3C[C@@H](O)CN3C(=O)[C@@H](n3cc([C@H]4CC[C@H](CN5CCC(c6ccc7c(c6)-n6c(nc(=O)c8c(Cl)cccc86)C76CCCCC6)CC5)CC4)nn3)C(C)(C)C)cc2)s1 | 1 nM | > 1000 nM |  |
| COCCOC[C@H](NC(=O)[C@@H]1C[C@@H](O)CN1C(=O)[C@@H](n1cc([C@H]2CC[C@H](CN3CCC(c4ccc5c(c4)-n4c(nc(=O)c6c(Cl)cccc64)C54CCCCC4)CC3)CC2)nn1)C(C)(C)C)c1ccc(-c2scnc2C)cc1 | 0.4 nM | > 1000 nM | concentration at 24 h [10]: 13 ng/mL; concentration at 96 h [11]: 8.3 ng/mL; concentration at 24 h [12]: 255 ng/mL; concentration at 96 h [13]: 79 ng/mL |
| CC(C)(C)[C@@H](C(=O)N1C[C@H](O)C[C@H]1C(=O)N[C@@H](CN1CCOCC1)c1ccc(-c2ccccc2F)cc1)n1cc([C@H]2CC[C@H](CN3CCC(c4ccc5c(c4)-n4c(nc(=O)c6c(Cl)cccc64)C54CCCCC4)CC3)CC2)nn1 | 1 nM | 222 nM |  |
| Cc1ccccc1-c1ccc([C@H](CN2CCOCC2)NC(=O)[C@@H]2C[C@@H](O)CN2C(=O)[C@@H](n2cc([C@H]3CC[C@H](CN4CCC(c5ccc6c(c5)-n5c(nc(=O)c7c(Cl)cccc75)C65CCCCC5)CC4)CC3)nn2)C(C)(C)C)cc1 | 8 nM | 789 nM |  |
| O=c1nc2n(c3cccc(Cl)c13)-c1ccc(C3CCNCC3)cc1C21CCCCC1 |  |  | pIC50 [8]: 7.37; pIC50 [9]: 7.24 |
| Cc1ncsc1-c1ccc([C@H](CN2CC(C(=O)O)C2)NC(=O)[C@@H]2C[C@@H](O)CN2C(=O)[C@@H](n2cc([C@H]3CC[C@H](CN4CCC(c5ccc6c(c5)-n5c(nc(=O)c7c(Cl)cccc75)C65CCCCC5)CC4)CC3)nn2)C(C)(C)C)cc1 | 228 nM | > 1000 nM |  |
| Cc1ncsc1-c1ccc([C@H](CN2CC(C)(F)C2)NC(=O)[C@@H]2C[C@@H](O)CN2C(=O)[C@@H](n2cc([C@H]3CC[C@H](CN4CCC(c5ccc6c(c5)-n5c(nc(=O)c7c(Cl)cccc75)C65CCCCC5)CC4)CC3)nn2)C(C)(C)C)cc1 | 1 nM | > 1000 nM |  |
| CC(C)(C)[C@@H](C(=O)N1C[C@H](O)C[C@H]1C(=O)N[C@@H](CN1CCOCC1)c1ccc(-c2ocnc2C(F)(F)F)cc1)n1cc([C@H]2CC[C@H](CN3CCC(c4ccc5c(c4)-n4c(nc(=O)c6c(Cl)cccc64)C54CCCCC4)CC3)CC2)nn1 | 16 nM | > 1000 nM |  |
| Cc1ncsc1-c1ccc([C@H](CN2CCOCC2)NC(=O)[C@@H]2C[C@@H](O)CN2C(=O)[C@@H](n2cc([C@H]3CC[C@H](CN4CCC(c5ccc6c(c5)-n5c(nc(=O)c7c(Cl)cccc75)C65CCCCC5)CC4)CC3)nn2)C(C)(C)O)cc1 | 1 nM | > 1000 nM |  |
| Cc1ncsc1-c1ccc([C@H](C)NC(=O)[C@@H]2C[C@@H](O)CN2C(=O)[C@@H](n2cc([C@H]3CC[C@H](CN4CCC(c5ccc6c(c5)-n5c(nc(=O)c7c(Cl)cccc75)C65CCCCC5)CC4)CC3)nn2)C(C)(C)C)cc1 | 0.3 nM | 115 nM |  |
| Cc1ncsc1-c1ccc([C@H](CN2CCN(C)CC2)NC(=O)[C@@H]2C[C@@H](O)CN2C(=O)[C@@H](n2cc([C@H]3CC[C@H](CN4CCC(c5ccc6c(c5)-n5c(nc(=O)c7c(Cl)cccc75)C65CCCCC5)CC4)CC3)nn2)C(C)(C)C)cc1 | 1 nM | 62 nM |  |
| Cc1ncsc1-c1ccc([C@H](CN2CCS(=O)(=O)CC2)NC(=O)[C@@H]2C[C@@H](O)CN2C(=O)[C@@H](n2cc([C@H]3CC[C@H](CN4CCC(c5ccc6c(c5)-n5c(nc(=O)c7c(Cl)cccc75)C65CCCCC5)CC4)CC3)nn2)C(C)(C)C)cc1 | 5 nM | > 1000 nM |  |
| Cc1ncsc1-c1ccc([C@H](CN2CC(C)(O)C2)NC(=O)[C@@H]2C[C@@H](O)CN2C(=O)[C@@H](n2cc([C@H]3CC[C@H](CN4CCC(c5ccc6c(c5)-n5c(nc(=O)c7c(Cl)cccc75)C65CCCCC5)CC4)CC3)nn2)C(C)(C)C)cc1 | 2 nM | > 1000 nM |  |
| COCCOCCOC[C@H](NC(=O)[C@@H]1C[C@@H](O)CN1C(=O)[C@@H](n1cc([C@H]2CC[C@H](CN3CCC(c4ccc5c(c4)-n4c(nc(=O)c6c(Cl)cccc64)C54CCCCC4)CC3)CC2)nn1)C(C)(C)C)c1ccc(-c2scnc2C)cc1 | 0.4 nM | > 1000 nM | concentration at 24 h [10]: 5.5 ng/mL; concentration at 96 h [11]: 4.2 ng/mL; concentration at 24 h [12]: 113 ng/mL; concentration at 96 h [13]: 53 ng/mL |
| Cc1ncsc1-c1ccc([C@H](C)NC(=O)[C@H]2C[C@@H](O)CN2C(=O)[C@@H](c2cc(N3CCC(CN4CCC(O[C@H]5C[C@H](Oc6cc(N7C8CCC7CN(c7cc(-c9ccccc9O)nnc7N)C8)ccn6)C5)CC4)CC3)no2)C(C)C)cc1 |  |  | DC50 [3]: 0.04 nM; DC50 [4]: 1.1 nM |

Source: ChEMBL document CHEMBL6096675 (J Med Chem, 2025)
